Experimental data taken from patent US6531148B1, “Therapeutic agents” (Takara Shuzo Co., Ltd., priority 1998, dated 2003).
Entries after “also recorded” stand apart in the source; their conditions may differ.

Assays:
[1] = tested on: Ehrlich's carcinoma cells; test: Carcinostatic activity test, Ehrlich's carcinoma; assay type: in vivo, mice; details: for carcinostatic activity: mouse, in vivo; for 30-day survival number: 6 mice per group, control 0; for Average days of survival: 30 days observation, control 14.3
Method: (2) Ehrlich's carcinoma cells were administered to 18 female ddY mice (5 weeks old, weighing about 25 g) intraperitoneally (1.2×10^6 cells/mouse). Observation was continued for 30 days. The average days of survival, the prolongation rate and the 30-day survival number were then calculated. Mice were divided into 3 group each consisting of 6 mice. One was a control group, and other two groups received DGE at 2 mg/kg and 20 mg/kg, respectively. DGE was intraperitoneally administered for 4 days from the day after the administration of cancer.

Bacteria 1 to 5 = test: Antimicrobial activity test (overall statement); assay type: cell-based
Method: The antimicrobial activities of DGE against Escherichia coli W3110 (Bacterium 1), Salmonella typhimurium LT2 (Bacterium 2), Bacillus subtilis IFO3021 (Bacterium 3), Pseudomonas aeruginosa IFO3080 (Bacterium 4) and Streptococcus mutans GS5 (Bacterium 5) were examined as follows.
The Bacteria 1 to 4 were cultured overnight in L-broth. The cultures were diluted to a concentration of about 2×10^5 cells/180 μl with Sensitive Bouillon medium (Nissui) base on the turbidity. The Bacterium 5 was cultured overnight in Brain Heart Infusion medium. The culture was diluted to a concentration of about 2×10^5 cells/180 μl with Brain Heart Infusion medium based on the turbidity. 180 μl of each bacterial dilution was placed in each well of a 96-well microtiter plate. On the other hand, the respective bacterial dilutions were further diluted and spread onto plates of L-broth or Brain Heart Infusion medium. The plates were incubated at 37° C. overnight. The resulting colonies were counted to determine the stating viable cell numbers.
A 14.4 mg/ml DGE solution was diluted every 2-folds to prepare serial dilutions. 20 μl each of the dilutions was placed in the well in which the bacterial dilution had been placed. The cells were cultured at 37° C. for 24 hours without shaking. After cultivation, the turbidity of each culture was measured.
Furthermore, the culture from the well for which the growth of bacterial cells was not observed was spread onto plates. After the plates were incubated at 37° C. overnight, the colony number was counted to determine the viable cell number. […] The minimal growth-inhibitory concentrations and the minimal bacteriocidal concentrations of DGE for the Bacteria 1 to 5 were determined as shown in Table 2.

[2] = tested on: NO production induced by LPS and IFN-γ in RAW264.7 cells; test: NO production inhibition test; assay type: cell-based; details: for inhibition of NO production induced by LPS and IFN-γ: NO2− in the medium, Griess' reagent
Method: (1) RAW264.7 cells (ATCC TIB 71) were suspended in Dulbecco's modified Eagle's medium (Bio Whittaker, 12-917F) without phenol red containing 10% fetal bovine serum (Gibco) and 2 mM L-glutamine (Life Technologies Oriental, 25030-149) at a concentration of 3×10^5 cells/ml. 500 μl of the suspension was added to each well of a 48-well microtiter plate and the plate was incubated at 37° C. for 12 hours in the presence of 5% CO2. 10 μl of an aqueous solution containing 25 μg/ml lipopolysaccharide (LPS, Sigma, L-2012) and 500 U/ml interferon-γ (IFN-γ, sold by Cosmobio, GZM-MG-IFN), and 10 μl of the aqueous DGE solution at 250 or 500 μM were added to the well. The plate was incubated for additional 12 hours. The concentration of NO2^− produced by oxidation of NO in the medium was then measured. As control groups, a group to which LPS or IFN-γ was not added and a group to which DGE was not added were provided.
(§1) After cultivation, 100 μl of 4% Griess' reagent (Sigma, G4410) was added to 100 μl of the medium, and the mixture was allowed to stand for 15 minutes at room temperature. The absorbance at 490 nm was then measured. NO2^− concentration in the medium was calculated with reference to a calibration curve prepared by using NaNO2 at a given concentration dissolved in the same medium as that described above. All of the measurements were carried out in triplicate.
(2) RAW264.7 cells were suspended in Dulbecco's modified Eagle's medium without phenol red containing 10% fetal bovine serum and 2 mM L-glutamine at a concentration of 3×10^5 cells/ml. 500 μl of the suspension was placed in each well of a 48-well microtiter plate. […] The concentration of NO2^− produced by oxidation of NO in the medium was measured. […]
as §1, with “reagent” for “reagent (Sigma, G4410)”, “culture supernatant,” for “medium,”, “above.” for “above. All of the measurements were carried out in triplicate.”
RAW264.7 cells were suspended in Dulbecco's modified Eagle's medium without phenol red containing 10% fetal bovine serum and 2 mM L-glutamine at a concentration of 3×10^5 cells/ml. […] The concentration of NO2^− produced by oxidation of NO in the medium was then measured. […]
as §1, with “above.” for “above. All of the measurements were carried out in triplicate.”

[3] = DGE at 2 mg/kg intraperitoneally for 4 days
[4] = DGE at 20 mg/kg intraperitoneally for 4 days

| Compound | carcinostatic activity [1] | antimicrobial activity (Bacteria 1 to 5) | NO2− concentration in the medium ([2]; LPS and IFN-γ, 10 μl of 1 mM DGE-GSH per 500 μl well, 16 hours, control 12.1 μM, no addition 4.6 μM) [µM] | 30-day survival number [1, 3] | Average days of survival [1, 3] [days] | 30-day survival number [1, 4] | Average days of survival [1, 4] [days] | inhibition of NO production, 5 hours pre-culture with DGE compared with 0.5 hour ([2]; DGE added before LPS and IFN-γ) | inhibition of NO production induced by LPS and IFN-γ [2] |
| --- | --- | --- | --- | --- | --- | --- | --- | --- | --- |
| 5-L-glutathion-S-yl-2-hydroxy-3,7-dioxabicyclo[2.2.2]octan-1-ol [DGE-GSH] | also exhibited similar activities | also exhibited similar activities | 9.4 | – | – | – | – | – | – |
| O=C1C=CC(CO)OC1O [DGE, L-glycero-1,5-epoxy-1αβ,6-dihydroxy-cis-hex-3-en-2-one] | exhibited a carcinostatic activity | exhibited an antimicrobial activity | – | 1 | 23.7 | 3 | 28.0 | stronger inhibition of NO production | dose-dependently inhibited NO production; also recorded: exhibited an activity of inhibiting NO production |
| O=C1C=CC(CO)OC1O [κ-DGE, D-glycero-1,5-epoxy-1αβ,6-dihydroxy-cis-hex-3-en-2-one] | also exhibited similar activities | also exhibited similar activities | – | – | – | – | – | – | exhibited a similar activity |
